Earlier results on 1 compound are cited in patent US20260216106A1, “DOSAGE FORM FOR INTRA-ARTICULAR INJECTION […] USE IN THE TREATMENT OF A JOINT DISEASE SUCH AS OSTEOARTHRITIS” (priority 2023, published 2026).

The structures appear in SMILES notation.

For this data set the following is noted: literature (Niel et al 2006).

For the compound `COc1cc2c(c(OC)c1OC)-c1ccc(OC)c(=O)cc1[C@@H](NC(C)=O)CC2` [colchicine, N-[(7S)-1,2,3,10-tetramethoxy-9-oxo-6,7-dihydro-5H-benzo[a]heptalen-7-yl]acetamide], the lethal dose is 0.8 mg/kg and the toxicity limit dose was 0.1 mg/kg.
